Assay results as given in patent publication US10227298B2, “Solid forms of a pharmaceutically active compound” (Hoffmann-La Roche Inc., priority 2014, dated 2019).

Assay: aqueous solubility of the crystalline forms
Type: physicochemical
Settings: pH 1.5, aqueous buffer, in water at physiological pHs (pH1.5-8.0)

solubility: < 0.05 µg/mL
SMILES: COc1cc(C(=O)O)ccc1NC(=O)[C@@H]1N[C@@H](CC(C)(C)C)[C@](C#N)(c2ccc(Cl)cc2F)[C@H]1c1cccc(Cl)c1F [Compound A, 4-{[(2R,3S,4R,5S)-4-(4-Chloro-2-fluoro-phenyl)-3-(3-chloro-2-fluoro-phenyl)-4-cyano-5-(2,2-dimethyl-propyl)-pyrrolidine-2-carbonyl]-amino}-3-methoxy-benzoic acid]
